This is an account of results in patent US20260217698A1 (BEYANG THERAPEUTICS CO., LTD., priority 2022, published 2026).

In one series the test system is melanin. As to the kind of experiment: Binding capacity of compounds to melanin. The series is classed as in vitro ADME, cuttlefish (Sepia officinalis). To be noted: cuttlefish (Sepia officinalis), melanin suspension (1 mg/mL); 1 mg/mL melanin in PBS pH 7.4, 2 μM compound, 2 h at 37° C.; read-out: Fu % (percentage of free drug). An excerpt:
Pigmented eye tissues contain melanin in intracellular melanosomes. Drugs bind to melanin to varying degrees, ranging from non-binding to extensive binding. Therefore, melanin binding is an important feature that affects drug delivery and biodistribution in the eye. The binding capacity of the compound to the melanin must be considered in the development of ophthalmic drugs.
Melanin was derived from the melanin of cuttlefish (Sepia officinalis) and was commercially available from Sigma Aldrich (St Louis, MO).
First, prepare 1 mg/mL melanin suspension with PBS (pH 7.4). As a washing step for the matrix, centrifuge the suspended particles for 5 min at 3000 rpm. Resuspend the resulting particles in a fresh PBS buffer, heat to 37° C. over continuous shaking and incubate it for 1 h. Accurately pipette 2 μL of the test stock solution (0.1 mM) into 98 μL of melanin suspension (1 mg/mL) to achieve a final incubation concentration of 2 μM. Similarly, accurately pipette 2 μL of the stock solution (0.1 mM) to 98 μL of PBS buffer (containing 0.1% BSA) as a blank control sample. Incubate the samples in a shaker (80-90 rpm) for 2 h at 37° C. Then, centrifuge the samples at room temperature. Pipette 50 μL of the supernatant and add 50 μL of precipitant (containing an internal standard). After protein precipitation of all the above samples, centrifuge the samples to collect the supernatants, dilute the supernatants with water (if necessary) and inject them for analysis. At the same time, measure the positive controls, including the high-binding compounds Sunitinib and chloroquine and the low-binding compound celecoxib. Establish an LC-MS/MS method for determining compound concentrations, and calibrate the peak area ratio of analyte/internal standard (Analyte/AIS) in the measured sample by the dilution factor to take it as an alternative concentration for the sample for data processing. The binding rate (Fb) of a compound in melanin was calculated as: […]
Ctest was the concentration of the compound in the melanin-incubated sample or the peak area ratio of the test compound to the internal standard. Ccontrol was the concentration of the compound in the blank control sample or the peak area ratio of the test compound to the internal standard. […]

The target of the next series is T1, EGFR (Homo sapiens, UniProt P00533).
T1 construct: purchased Carna 08-115
Kind of series: Kinase inhibition, Mobility Shift Assay/IMAP, EGFR. The series is classed as biochemical. An excerpt: (§1) This assay directly monitored the ability of compounds to inhibit kinase phosphorylation by measuring non-phosphorylated and phosphorylated substrates in kinase reactions by using Mobility Shift Assays/IMAP™ analysis.
(§2) Read the conversion ratio data on CaliperEZ Reader II. Convert conversion rates into inhibition ratio data.
(§3) “Min” indicates the readout of the control well without the addition of enzymes; and “Max” indicates the readout of the control well with the addition of DMSO Fit IC50 values with XL Fit excel add-in version […].
(§4) X indicates the log value of compound concentration, and Y indicates the inhibition ratio (% inhibition).

The next series has as its target VEGFR2 (Homo sapiens, UniProt P35968). As to the kind of experiment: Kinase inhibition, Mobility Shift Assay/IMAP, VEGFR2. The series is classed as biochemical. The arrangement: purchased Carna 08-191.
Source text: as §1, §2, §3, §4

A further series deals with T2, TIE2 (Homo sapiens, UniProt Q02763).
T2 construct: purchased BPS 40270
As to the kind of experiment: Kinase inhibition, Mobility Shift Assay/IMAP, TIE2. The series is classed as biochemical.
Source text: as §1, §2, §3, §4

T1 sequence (P00533 669-1210 limits assumed): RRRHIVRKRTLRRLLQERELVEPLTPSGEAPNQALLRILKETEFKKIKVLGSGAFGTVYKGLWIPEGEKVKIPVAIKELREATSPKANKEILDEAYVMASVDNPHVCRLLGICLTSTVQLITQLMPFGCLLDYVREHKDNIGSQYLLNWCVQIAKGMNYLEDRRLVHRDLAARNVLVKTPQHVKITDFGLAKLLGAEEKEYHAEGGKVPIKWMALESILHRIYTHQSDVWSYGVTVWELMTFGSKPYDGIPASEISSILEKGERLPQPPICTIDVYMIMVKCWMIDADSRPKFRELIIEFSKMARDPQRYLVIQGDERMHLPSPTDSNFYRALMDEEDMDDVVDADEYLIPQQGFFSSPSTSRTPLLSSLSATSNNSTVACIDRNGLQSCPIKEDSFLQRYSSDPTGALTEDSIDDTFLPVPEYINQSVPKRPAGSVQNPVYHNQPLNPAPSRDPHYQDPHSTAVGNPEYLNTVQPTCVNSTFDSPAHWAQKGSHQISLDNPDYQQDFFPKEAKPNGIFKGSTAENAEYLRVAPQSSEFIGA
T2 sequence (Q02763 23-1124): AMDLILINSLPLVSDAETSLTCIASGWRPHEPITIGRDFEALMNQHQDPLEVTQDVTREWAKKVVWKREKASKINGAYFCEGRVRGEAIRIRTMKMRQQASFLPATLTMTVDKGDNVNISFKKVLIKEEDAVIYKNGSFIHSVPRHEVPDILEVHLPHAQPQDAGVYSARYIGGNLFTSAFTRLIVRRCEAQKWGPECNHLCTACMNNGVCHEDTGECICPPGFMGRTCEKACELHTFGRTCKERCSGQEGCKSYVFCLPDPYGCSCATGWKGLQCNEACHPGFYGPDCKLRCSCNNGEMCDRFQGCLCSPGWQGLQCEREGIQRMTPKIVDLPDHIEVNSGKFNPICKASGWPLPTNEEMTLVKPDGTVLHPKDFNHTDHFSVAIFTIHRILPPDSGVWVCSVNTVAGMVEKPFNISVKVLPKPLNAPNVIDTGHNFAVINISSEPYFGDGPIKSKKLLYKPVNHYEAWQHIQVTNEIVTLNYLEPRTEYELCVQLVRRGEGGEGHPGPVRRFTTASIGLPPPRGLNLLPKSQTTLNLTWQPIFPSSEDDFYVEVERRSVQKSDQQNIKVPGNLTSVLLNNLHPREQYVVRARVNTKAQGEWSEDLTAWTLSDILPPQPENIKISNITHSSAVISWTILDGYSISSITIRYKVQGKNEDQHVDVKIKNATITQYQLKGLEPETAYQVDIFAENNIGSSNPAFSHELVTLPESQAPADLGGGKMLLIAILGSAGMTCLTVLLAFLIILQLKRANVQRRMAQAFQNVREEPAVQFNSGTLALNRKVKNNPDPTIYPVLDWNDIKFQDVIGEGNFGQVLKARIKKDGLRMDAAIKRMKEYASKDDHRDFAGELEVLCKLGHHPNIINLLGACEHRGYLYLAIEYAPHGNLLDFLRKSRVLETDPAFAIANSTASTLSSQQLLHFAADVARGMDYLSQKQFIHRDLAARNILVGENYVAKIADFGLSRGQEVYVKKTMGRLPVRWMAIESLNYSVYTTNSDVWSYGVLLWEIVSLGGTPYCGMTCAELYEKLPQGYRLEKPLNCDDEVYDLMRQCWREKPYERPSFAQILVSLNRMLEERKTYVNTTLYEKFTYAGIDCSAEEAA
Chain of VEGFR2 (P35968 790-1356 limits assumed): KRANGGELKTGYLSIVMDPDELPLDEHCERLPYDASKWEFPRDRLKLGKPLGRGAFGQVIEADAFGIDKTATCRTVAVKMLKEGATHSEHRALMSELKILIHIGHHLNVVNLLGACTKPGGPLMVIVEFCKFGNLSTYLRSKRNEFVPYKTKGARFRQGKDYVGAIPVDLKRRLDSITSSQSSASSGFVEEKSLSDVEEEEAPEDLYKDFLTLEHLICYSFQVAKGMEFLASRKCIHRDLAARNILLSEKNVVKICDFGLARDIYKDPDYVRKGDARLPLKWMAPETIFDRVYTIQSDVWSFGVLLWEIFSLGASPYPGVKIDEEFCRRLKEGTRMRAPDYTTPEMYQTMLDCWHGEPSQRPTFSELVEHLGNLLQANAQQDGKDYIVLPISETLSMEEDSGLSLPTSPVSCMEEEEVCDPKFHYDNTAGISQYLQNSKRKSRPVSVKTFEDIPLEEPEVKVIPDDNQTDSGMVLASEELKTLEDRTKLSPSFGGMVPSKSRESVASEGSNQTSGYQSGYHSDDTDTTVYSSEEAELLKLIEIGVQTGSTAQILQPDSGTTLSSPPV

As for `CN1CCN(CCCNC(=O)Nc2snc(OCc3cccc(C(=O)CC4CC4)c3)c2C(N)=O)CC1` [Compound T110, 3-[[3-(2-cyclopropylacetyl)phenyl]methoxy]-5-[3-(4-methylpiperazin-1-yl)propylcarbamoylamino]isothiazole-4-carboxamide], the fraction unbound at 2 h, 2 μM in the series with melanin was 0.0485.

`NC(=O)c1c(OCc2cc(C(=O)NC3CC3)ccc2F)nsc1NC(=O)NCCCN1CC[C@H](O)C1` [Compound T105, 3-[[5-(cyclopropylcarbamoyl)-2-fluoro-phenyl]methoxy]-5-[3-[(3S)-3-hydroxypyrrolidin-1-yl]propylcarbamoylamino]isothiazole-4-carboxamide]: the fraction unbound at 2 h, 2 μM in the series on melanin came out at 0.0316. Moreover, the IC50 (commonly the point on the concentration scale where inhibition reaches its midpoint) at EGFR amounted to 11900 nM; on VEGFR2 it was 1.6 nM.

Take `NC(=O)c1c(OCc2ccc(F)c(C(=O)NC3CC3)c2)nsc1NC(=O)NCCCN1CCNCC1` [Compound T160, 3-[[3-(cyclopropylcarbamoyl)-4-fluoro-phenyl]methoxy]-5-(3-piperazin-1-ylpropylcarbamoylamino)isothiazole-4-carboxamide]: the results for the IC50 at TIE2 and at VEGFR2 were 4270 nM and 1.41 nM, respectively.

`COc1cc(OC)c(F)c(COc2nsc(NC(=O)NCCCCN3CC[C@H](O)C3)c2C(N)=O)c1F` [Compound T136, 3-[(2,6-difluoro-3,5-dimethoxy-phenyl)methoxy]-5-[4-[(3S)-3-hydroxypyrrolidin-1-yl]butylcarbamoylamino]isothiazole-4-carboxamide]: the fraction unbound at 2 h, 2 μM in the series with melanin was 0.0285. The IC50 on EGFR is more than 60000 nM; on VEGFR2, 1.8 nM.

In the case of `NC(=O)c1c(OCc2c(F)cc(Br)cc2F)nsc1Nc1cncc(OCCN2CCCC2)c1` [Compound T045, 3-((4-bromo-2,6-difluorobenzyl)oxy)-5-((5-(2-(pyrrolidin-1-yl)ethoxy)pyridin-3-yl)amino)isothiazole-4-carboxamide], the IC50 came to 230 nM at TIE2 and 22.1 nM at VEGFR2.

As for `COc1cc(OC)c(F)c(COc2nsc(NC(=O)NCCCC3CCCN3C)c2C(N)=O)c1F` (stereo not shown) [Compound T138, 3-[(2,6-difluoro-3,5-dimethoxy-phenyl)methoxy]-5-[3-(1-methylpyrrolidin-2-yl)propylcarbamoylamino]isothiazole-4-carboxamide], the fraction unbound at 2 h, 2 μM with melanin amounted to 0.0398. The IC50 is more than 60000 nM on EGFR and 2.6 nM at VEGFR2.

In the case of `NC(=O)c1c(OCc2ccc3c(c2)OCCC3)nsc1NC(=O)NCCCCN1CCCC1` [Compound T097, 3-(chroman-7-ylmethoxy)-5-(4-pyrrolidin-1-ylbutylcarbamoylamino)isothiazole-4-carboxamide], the fraction unbound at 2 h, 2 μM in the series with melanin is 0.0817.

Regarding `COc1ccc(F)c(COc2nsc(NC(=O)NCCC3CCN(C)CC3)c2C(N)=O)c1F` [Compound T109, 3-[(2,6-difluoro-3-methoxy-phenyl)methoxy]-5-[2-(1-methyl-4-piperidyl)ethylcarbamoylamino]isothiazole-4-carboxamide], in the series on melanin, the fraction unbound at 2 h, 2 μM turned out to be 0.0435. The IC50 on EGFR was determined as 7450 nM; on VEGFR2, 13.8 nM.

Take `NC(=O)c1c(OCc2cc(C(=O)O)ccc2F)nsc1NC(=O)NCCCN1CC[C@H](F)C1` [Compound T171, 3-[[4-carbamyl-5-[3-[(3S)-3-fluoropyrrolidin-1-yl]propylcarbamylamino]isothiazol-3-yl]oxymethyl]-4-fluoro-benzoic acid]: the IC50 is 29100 nM at EGFR and 5850 nM at TIE2.

In the case of `NC(=O)c1c(OCc2cc(C(=O)NC3CC3)ccc2F)nsc1NC(=O)NCCC(=O)O` [Compound T172, 3-[[4-carbamoyl-3-[[5-(cyclopropylcarbamoyl)-2-fluoro-phenyl]methoxy]isothiazol-5-yl]carbamoylamino]propanoic acid], the concentration for half-maximal inhibition (IC50) came out at 3260 nM on TIE2 and 2.6 nM at VEGFR2.

For `CN1CCN(CCCNC(=O)Nc2snc(OCc3cc(C(=O)NC4CC4)ccc3Cl)c2C(N)=O)CC1` [Compound T140, 3-[[2-chloro-5-(cyclopropylcarbamoyl)phenyl]methoxy]-5-[3-(4-methylpiperazin-1-yl)propylcarbamoylamino]isothiazole-4-carboxamide], the fraction unbound at 2 h, 2 μM with melanin turned out to be 0.0726. Moreover, the IC50 worked out at 15500 nM on EGFR and 0.44 nM on VEGFR2.

Regarding `COc1cc(OC)c(F)c(COc2nsc(NC(=O)NCCCCN3CCCC3)c2C(N)=O)c1F` [Compound T137, 3-[(2,6-difluoro-3,5-dimethoxy-phenyl)methoxy]-5-(4-pyrrolidin-1-ylbutylcarbamoylamino)isothiazole-4-carboxamide], in the series on melanin, the fraction unbound at 2 h, 2 μM is 0.0446. Also, the IC50 on EGFR is more than 60000 nM; on VEGFR2, 2.1 nM.

Take `NC(=O)c1c(OCc2cc(Cl)c3cncn3c2)nsc1NC(=O)NCCCCN1CCCC1` [Compound T051, 3-((8-chloroimidazo[1,5-a]pyridin-6-yl)methoxy)-5-(3-(4-(pyrrolidin-1-yl)butyl)ureido)isothiazole-4-carboxamide]: the IC50 on TIE2 is 3210 nM.

Turning to `COc1cc(COc2nsc(NC(=O)NCCCCN3CC[C@H](F)C3)c2C(N)=O)cc(OC)c1` [Compound T062, (S)-3-((3,5-dimethoxybenzyl)oxy)-5-(3-(4-(3-fluoropyrrolidin-1-yl)butyl)ureido)isothiazole-4-carboxamide], in the series on melanin, the fraction unbound at 2 h, 2 μM came to 0.0195. Besides, the IC50 at EGFR is more than 60000 nM; at VEGFR2 it was 58.8 nM.

As to `NC(=O)c1c(OCc2cc(C(=O)NC3CC3)ccc2F)nsc1NC(=O)NCCCN1CC[C@@H](O)C1` [Compound T106, 3-[[5-(cyclopropylcarbamoyl)-2-fluoro-phenyl]methoxy]-5-[3-[(3R)-3-hydroxypyrrolidin-1-yl]propylcarbamoylamino]isothiazole-4-carboxamide], in the series on melanin, the fraction unbound at 2 h, 2 μM is 0.0172. In addition, the 50% inhibitory concentration (IC50) on EGFR was determined as 20100 nM; at VEGFR2, 1.64 nM.

Consider `NC(=O)c1c(OCc2cc(C(=O)NC3CC3)ccc2F)nsc1NC(=O)NCCCCN1CC[C@H](O)C1` [Compound T099], for which the fraction unbound at 2 h, 2 μM in the series with melanin was 0.0884.

Consider `CN1CCN(CCCNC(=O)Nc2snc(OCc3cccc(C(=O)C4CC4)c3)c2C(N)=O)CC1` [Compound T086, 3-((3-(cyclopropanecarbonyl)benzyl)oxy)-5-(3-(3-(4-methylpiperazin-1-yl)propyl)ureido)isothiazole-4-carboxamide], for which the IC50 on EGFR was determined as 6830 nM; at TIE2, 895 nM.

`N#CCCNC(=O)Nc1snc(OCc2cc(C(=O)NC3CC3)ccc2F)c1C(N)=O` [Compound T162, 5-(2-cyanoethylcarbamoylamino)-3-[[5-(cyclopropylcarbamoyl)-2-fluoro-phenyl]methoxy]isothiazole-4-carboxamide]: the IC50 on TIE2 amounted to 7360 nM; at VEGFR2 it was 3.05 nM.

For the molecule `COc1cc(OC)c(F)c(COc2nsc(NC(=O)NCCCN3CCN(C)CC3)c2C(N)=O)c1F` [Compound T117, 3-[(2,6-difluoro-3,5-dimethoxy-phenyl)methoxy]-5-[3-(4-methylpiperazin-1-yl)propylcarbamoylamino]isothiazole-4-carboxamide], the fraction unbound at 2 h, 2 μM in the series on melanin was found to be 0.0207. For the same molecule, the IC50 is more than 60000 nM at EGFR and 2.54 nM at VEGFR2.

With `O=C(NCCCN1CC[C@H](F)C1)Nc1snc(OCc2cc(C(=O)NC3CC3)ccc2F)c1C(=O)O` [Compound T155, 3-[[5-(cyclopropylcarbamoyl)-2-fluoro-phenyl]methoxy]-5-[3-[(3S)-3-fluoropyrrolidin-1-yl]propylcarbamoylamino]isothiazole-4-carboxylic acid], the concentration for half-maximal inhibition (IC50) on EGFR and on TIE2 was more than 60000 nM in each case.

For the molecule `CCOc1ccc(F)c(COc2nsc(NC(=O)NCCCCN3CCCC3)c2C(N)=O)c1` [Compound T096, 3-((5-ethoxy-2-fluorobenzyl)oxy)-5-(3-(4-(pyrrolidin-1-yl)butyl)ureido)isothiazole-4-carboxamide], the fraction unbound at 2 h, 2 μM in the series on melanin is 0.0792.
